Data as given in paper PMC9396645 (Frontiers in Chemistry, 2022).

Experiments:
[1] = test system: C4-2 cells; assay: Internalization efficiency / specific cell uptake in C4-2 cells; format: cell-based, human; conditions: for Specific cell surface / Specific lysate (internalization): ^68Ga-labeled compounds 30 nM, 45 min, 37°C, specificity by 2-PMPA 500 μM, mean ± SD (n = 3)
Description: The specific internalization ratio was determinated in 24-well plates. The plates were previously coated with 0.1% poly-L-lysine in PBS for 20 min and washed with PBS once. C4-2 cells (10^5 cells per analysis) were added to each well and equilibrated overnight. The cells were incubated for 45 min with 250 µL of a 30 nM solution of the ^68Ga-labeled compounds either in a water bath at 37°C or on ice. The PSMA-receptor-blocking agent 2-(phosphonomethyl)pentanedioic acid (2-PMPA; 500 μM; Axxora) was used to verify the specificity of the cellular uptake of the novel compounds. The cells were washed thrice (using 1 ml of ice-cold PBS), followed by an incubation with 0.5 ml of a glycine solution (50 mM in HCl at a pH of 2.8) for 5 min, washed once with 1 ml of ice-cold PBS, and finally lysed with 0.5 ml of 0.3 M NaOH. The lysate was collected, and the radioactivity was measured in a gamma-counter. Triplicate measurements were performed for all experiments.

[2] = molecular target: T1, PSMA (Homo sapiens, UniProt Q04609); assay: Competitive cell binding assay on C4-2 cells vs ^68Ga-PSMA-10; conditions: non-labeled compounds, radioligand ^68Ga-PSMA-10 0.75 nM, 37°C 45 min, mean ± SD (n = 3)
T1 construct: host or cells: C4-2 cells (subline of LNCaP)
T1 sequence (Q04609 whole entry): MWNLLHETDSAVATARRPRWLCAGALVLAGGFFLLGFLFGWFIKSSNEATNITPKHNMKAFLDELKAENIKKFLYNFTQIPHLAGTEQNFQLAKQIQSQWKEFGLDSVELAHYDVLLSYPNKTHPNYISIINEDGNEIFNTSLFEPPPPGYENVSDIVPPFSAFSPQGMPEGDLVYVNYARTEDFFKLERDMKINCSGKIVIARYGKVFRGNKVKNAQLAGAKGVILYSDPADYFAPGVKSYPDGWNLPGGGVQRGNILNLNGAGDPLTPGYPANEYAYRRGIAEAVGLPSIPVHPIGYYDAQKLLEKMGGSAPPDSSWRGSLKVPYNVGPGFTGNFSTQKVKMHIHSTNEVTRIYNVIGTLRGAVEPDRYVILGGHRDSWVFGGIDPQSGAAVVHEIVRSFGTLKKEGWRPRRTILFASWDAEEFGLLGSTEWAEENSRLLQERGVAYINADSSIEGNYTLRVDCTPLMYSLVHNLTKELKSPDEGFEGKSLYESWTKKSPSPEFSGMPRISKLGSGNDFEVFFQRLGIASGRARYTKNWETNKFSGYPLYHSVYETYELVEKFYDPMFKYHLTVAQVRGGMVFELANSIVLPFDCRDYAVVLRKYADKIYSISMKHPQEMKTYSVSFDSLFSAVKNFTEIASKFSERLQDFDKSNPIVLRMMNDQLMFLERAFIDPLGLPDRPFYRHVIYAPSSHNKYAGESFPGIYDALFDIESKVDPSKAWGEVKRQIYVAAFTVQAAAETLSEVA
Description: The competition binding assay was performed using the cell line C4-2 (ATCC® CRL-3314™; American Type Culture Collection). This is a subline of the PSMA-positive cell line LNCaP. The cells were cultivated in RPMI 1640 medium (PAN-Biotech), supplemented with 10% fetal bovine serum and 2 mM L-glutamine (PAN-Biotech) at 37°C and 5% CO2 in a humidified atmosphere.
A 96-well MultiScreenHTS-DV filter plate (Merck Millipore) was incubated at room temperature with 100 µL of a 1% bovine serum albumin (BSA) solution in PBS (phosphate-buffered saline) per well for 30 min. After removal of PBS/BSA solution, 1 × 10^5 C4-2 cells in 50 µL of Opti-MEM medium (Gibco, Life Technologies) were seeded into each well. […] All non-labeled compounds were dissolved in Opti-MEM and added as competing ligands at several concentrations: 0, 0.5, 1, 2.5, 5, 10, 25, 50, 100, 500, 1,000, and 5,000 nM. After incubation at 37°C for 45 min, the cells were washed twice with PBS at 4°C. The radioactivity in the supernatant and that accumulated by the cells was determined with a γ-counter (Packard Cobra Auto-gamma). Using Graph Pad Prism 5.01 software, a nonlinear regression algorithm was calculated to obtain the 50% inhibitory concentration (IC50). These experiments were performed in quadruplicate.

[3] = Determination of plasma half-life in athymic nude mice; format: in vivo, mouse; conditions: athymic nude mice (n = 3), i.v. 4–6 MBq, biexponential fit, weighted overall half-life
Description: The radioligands ^68Ga-CA027 and ^68Ga-CA028 (4–6 MBq) were injected into athymic nude mice (n = 3) via the lateral tail vein. Blood (25–50 μL) was collected 2, 5, 15, 30, 45, 60, 90, and 120 min post injection via either the tail or saphenous vein, and the activity of the blood samples was determined in a γ-counter. Both procedures furnished consistent and reproducible results. The percentage of the injected dose per gram of tissue (%ID/g) was calculated, and the resulting values were plotted as a function of time. A biexponential decay curve was used as a fit function, accounting for a short blood half-life (a-phase) during the initial phase directly after injection and a longer blood half-life during the terminal phase (b-phase). The data analysis program Prism 7™ was used to determine both half-lives, t1/2-a and t1/2-b, as well as their relative contribution (in %) to the overall half-life (t1/2). Subsequently, both half-lives were weighed according to their relative contribution to the overall blood half-life t1/2. At the time of tracer injection (t = 0), it was assumed that %ID/g = 50. The injected dose at t = 0 equals 100%, divided by the total mass of blood (approximately 2 g in the case of 6‒8 weeks old mice) gives %ID/g t=0 = 50.

[4] = Serum stability (radio-HPLC and radio-ITLC); format: in vitro ADME; conditions: ^177Lu-labeled; for release of ^177Lu in human serum: radio-ITLC
Description: After radiolabeling of the compounds, serum stability was examined by HPLC and ITLC (instant thin-layer chromatography). 50 µL (20 MBq) of the ^177Lu-labeled ligands was added to 200 µL human serum (Sigma-Aldrich) and incubated at 37°C. At different time points (0, 2, 24, 48, and 72 h) 0.5 µL was applied onto iTLC-SG-glass microfiber chromatography paper strips (5 × 0.5 cm; Agilent Technologies) at a distance of 1 cm from the bottom. The strip was placed upright into a vial containing 120 µL of sodium citrate buffer (0.5 M, pH = 5.0). The buffer front was allowed to rise to the top. Subsequently, each strip was cut in eight equally sized pieces that were subsequently measured in a gamma-counter. For HPLC analysis, an equal volume of ACN was added to the samples; under these conditions, the serum proteins precipitated. The samples were centrifuged for 10 min at 12,000 × g. Following the separation of the pellet and the supernatant, their relative activity (%) was determined. An aliquot of the supernatant was analyzed by radio-HPLC (0–100% ACN in 5 min, Monolith column, Merck), with a flow rate of 2 mL/min.

[5] = test system: C4-2 tumor-bearing mice; assay: In vivo metabolite analysis by radio-HPLC of tissue extracts; design: species or system mouse; conditions: extracts from kidney, blood, liver and tumor of C4-2 tumor-bearing mice, 10 MBq, 0.2 nmol i.v.
Description: The metabolization of the radiolabeled tracers in vivo was studied by radio-HPLC analysis. Male nude C4-2 tumor-bearing mice (n = 3) were injected with ^177Lu-CA028 or ^177Lu-PSMA-617 (10 MBq, 0.2 nmol in approximately 100 µL of 0.9% saline) via the tail vein. Ten min post injection, blood, the liver, and the kidneys were dissected. The tissues were rinsed with ice-cold saline, blotted dry, treated with 2 mL of 0.1 M NH4OAc/EtOH (35:65), and homogenized with an Ultra-Turrax T8 (IKA Labortechnik). The samples were then centrifuged for 10 min at 12,000 × g and 4°C. For HPLC measurements, an aliquot of the supernatants was prepared by precipitation of the proteins with ACN as described above for serum stability testing. The samples were analyzed by radio-HPLC (0–100% ACN in 5 min, 2 mL/min, Monolith column, Merck). The fractions were collected every 10 s over the whole course of the chromatographic run. Subsequently, the activity of the samples was measured in a gamma-counter to reconstruct a chromatogram.

Row | SMILES | Specific cell surface [1] [%IA/10^6cells] | Specific lysate (internalization) [1] [%IA/10^6 cells] | Ki [2] [nM] | release of ^177Lu in human serum ([4]; 37°C) | also measured
1 | O=C(O)CCC(NC(=O)NC(CCCCNC(=O)c1ccc(CN2CCN(CC(=O)O)CCN(CC(=O)O)CCN(CC(=O)O)CC2)cc1)C(=O)O)C(=O)O (stereo not drawn) [CA027] | 2.18 ± 0.50 | 1.70 ± 0.24 | 33.8 ± 2.13 | – | –
2 | O=C(O)CCC(NC(=O)NC(CCCCNC(=O)C(Cc1ccc2ccccc2c1)NC(=O)C1CCC(CNC(=O)c2ccc(CN3CCN(CC(=O)O)CCN(CC(=O)O)CCN(CC(=O)O)CC3)cc2)CC1)C(=O)O)C(=O)O (stereo not drawn) [CA028] | 94.12 ± 2.70 | 41.22 ± 2.72 | 15.2 ± 6.11 | – | –
3 | O=C(O)CCC(NC(=O)NC(CCCCNC(=O)C(Cc1ccc2ccccc2c1)NC(=O)C1CCC(CNC(=S)Nc2ccc(CNC(=O)CCC(C(=O)O)N3CCN(CC(=O)O)CCN(CC(=O)O)CCN(CC(=O)O)CC3)cc2)CC1)C(=O)O)C(=O)O (stereo not drawn) [CA029] | 46.83 ± 3.07 | 44.26 ± 3.96 | 11 ± 4.87 | – | –
4 | O=C(O)CCC(NC(=O)NC(CCCCNC(=O)C(Cc1ccc2ccccc2c1)NC(=O)C1CCC(CNC(=S)Nc2ccc(CC3CN(CC(=O)O)CCN(CC(=O)O)CCN(CC(=O)O)CCN3CC(=O)O)cc2)CC1)C(=O)O)C(=O)O (stereo not drawn) [CA030] | 43.46 ± 1.50 | 53.78 ± 5.45 | 4.79 ± 1.31 | – | specific internalization in C4-2 cells ([1]; Table 2): 53.78 % ID/10^6 cells
5 | O=C([O-])CN1CCN(CC(=O)[O-])CCN(Cc2ccc(C(=O)NCCCCC(NC(=O)NC(CCC(=O)O)C(=O)O)C(=O)O)cc2)CCN(CC(=O)[O-])CC1.[68Ga+3] (stereo not drawn) [^68Ga-CA027] | – | – | – | – | plasma half-life t1/2 [3]: 2.7 min
6 | O=C([O-])CN1CCN(CC(=O)[O-])CCN(Cc2ccc(C(=O)NCC3CCC(C(=O)NC(Cc4ccc5ccccc5c4)C(=O)NCCCCC(NC(=O)NC(CCC(=O)O)C(=O)O)C(=O)O)CC3)cc2)CCN(CC(=O)[O-])CC1.[177Lu+3] (stereo not drawn) [^177Lu-CA028] | – | – | – | – | free activity in human serum ([4]; 37°C, 'at this time point'): 40%; metabolization in vivo (radio-HPLC of extracts) [5]: activity elutes at the retention time of the intact tracer
7 | O=C([O-])CN1CCN(CC(=O)[O-])CCN(C(CCC(=O)NCc2ccc(NC(=S)NCC3CCC(C(=O)NC(Cc4ccc5ccccc5c4)C(=O)NCCCCC(NC(=O)NC(CCC(=O)O)C(=O)O)C(=O)O)CC3)cc2)C(=O)O)CCN(CC(=O)[O-])CC1.[177Lu+3] (stereo not drawn) [^177Lu-CA029] | – | – | – | no release | –
8 | O=C([O-])CN1CCN(CC(=O)[O-])CCN(CC(=O)O)C(Cc2ccc(NC(=S)NCC3CCC(C(=O)NC(Cc4ccc5ccccc5c4)C(=O)NCCCCC(NC(=O)NC(CCC(=O)O)C(=O)O)C(=O)O)CC3)cc2)CN(CC(=O)[O-])CC1.[177Lu+3] (stereo not drawn) [^177Lu-CA030] | – | – | – | no release | stability in human serum ([4]; over 72 h): stable
9 | O=C([O-])CN1CCN(CC(=O)[O-])CCN(CC(=O)NCC2CCC(C(=O)N[C@@H](Cc3ccc4ccccc4c3)C(=O)NCCCC[C@H](NC(=O)N[C@@H](CCC(=O)O)C(=O)O)C(=O)O)CC2)CCN(CC(=O)[O-])CC1.[177Lu+3] (stereo partly drawn) [^177Lu-PSMA-617, reference compound] | – | – | – | no release | metabolization in vivo (radio-HPLC of extracts) [5]: activity elutes at the retention time of the intact tracer
